Three compounds from publication PMC4642672, “The GH5 1,4-β-mannanase from Bifidobacterium animalis subsp. lactis Bl-04 possesses a low-affinity mannan-binding module and highlights the diversity of mannanolytic enzymes” (BMC Biochemistry, 2015) can be followed below.

For orientation: Kd means the concentration at which binding is half-saturated. Higher therefore signals a looser complex.

The target in assay [1] is T1, BlMan5_8 (Bifidobacterium animalis, UniProt B8DWU0).
T1 construct: gene BLA_0648; mature enzyme without signal peptide (residues 1-29 removed), GH5_8 + C-terminal CBM10; N-terminal His6 tag cleaved by thrombin; E. coli BL21(DE3)
T1 sequence (B8DWU0 entry or part of it): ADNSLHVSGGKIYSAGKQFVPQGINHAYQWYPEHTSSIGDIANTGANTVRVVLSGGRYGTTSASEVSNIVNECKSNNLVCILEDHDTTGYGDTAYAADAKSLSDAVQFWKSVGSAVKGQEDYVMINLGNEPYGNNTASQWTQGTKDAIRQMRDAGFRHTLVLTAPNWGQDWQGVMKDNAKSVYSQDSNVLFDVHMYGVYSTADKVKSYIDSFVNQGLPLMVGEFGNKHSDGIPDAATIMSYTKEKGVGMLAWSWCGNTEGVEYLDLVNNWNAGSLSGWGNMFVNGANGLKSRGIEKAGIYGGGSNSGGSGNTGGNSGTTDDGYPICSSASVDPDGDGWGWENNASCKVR
Nature of the assay: surface plasmon resonance, steady state, enzyme immobilised by amine coupling. To be noted: 10 mM MES, 150 mM NaCl, 0.005% P20, pH 6.0, 25 °C, one-site fit. The assay is classed as binding. The source says: surface plasmon resonance, steady state, enzyme immobilised by amine coupling on BlMan5_8

Assay [2] concerns the target T2, BlMan5_8-ΔCBM10 (Bifidobacterium animalis, UniProt B8DWU0).
T2 construct: gene BLA_0648; catalytic GH5_8 module, C-terminal CBM10 deleted by stop codon at Ser338 in linker; signal peptide (1-29) removed; N-terminal His6 tag cleaved by thrombin; E. coli BL21(DE3)
The description is as above. The assay is classed as binding. To be noted: 10 mM MES, 150 mM NaCl, 0.005% P20, pH 6.0, 25 °C; one-site fit; catalytic module. From the text: surface plasmon resonance, steady state, enzyme immobilised by amine coupling on BlMan5_8-ΔCBM10

Setting [3] is: catalytic module and CBM10 both bind.

The structures appear in SMILES notation.

T2 sequence (B8DWU0 entry or part of it, stated change not applied): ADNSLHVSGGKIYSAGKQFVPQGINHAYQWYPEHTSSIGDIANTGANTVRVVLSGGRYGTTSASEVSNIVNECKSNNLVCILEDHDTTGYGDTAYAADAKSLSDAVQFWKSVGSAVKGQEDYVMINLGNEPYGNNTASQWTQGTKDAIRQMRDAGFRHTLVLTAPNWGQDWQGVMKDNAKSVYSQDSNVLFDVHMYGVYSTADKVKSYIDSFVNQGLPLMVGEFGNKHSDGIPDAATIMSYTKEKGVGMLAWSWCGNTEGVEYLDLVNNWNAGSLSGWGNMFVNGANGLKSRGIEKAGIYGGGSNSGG

In the case of `OC[C@H]1O[C@@H](O[C@H]2[C@H](O)[C@H](O)[C@H](O[C@H]3[C@H](O)[C@H](O)[C@H](O[C@H]4[C@H](O)[C@H](O)C(O)O[C@@H]4CO)O[C@@H]3CO)O[C@@H]2CO)[C@@H](O)[C@@H](O)[C@@H]1O` (some centres unmarked) [M4, mannotetraose], the affinity in assay [1] (CBM10 site suggested), expressed as Kd, was 5100 ± 800 µM. Regarding `OC[C@H]1O[C@@H](O[C@H]2[C@H](O)[C@H](O)[C@H](O[C@H]3[C@H](O)[C@H](O)[C@H](O[C@H]4[C@H](O)[C@H](O)[C@H](O[C@H]5[C@H](O)[C@H](O)C(O)O[C@@H]5CO)O[C@@H]4CO)O[C@@H]3CO)O[C@@H]2CO)[C@@H](O)[C@@H](O)[C@@H]1O` (some centres unmarked) [M5, mannopentaose], the Kd in assay [2] is 1500 ± 300 µM; in assay [1] (setting [3]), 3700 ± 300 µM.

Take `OC[C@H]1O[C@@H](O[C@H]2[C@H](O)[C@H](O)[C@H](O[C@H]3[C@H](O)[C@H](O)[C@H](O[C@H]4[C@H](O)[C@H](O)[C@H](O[C@H]5[C@H](O)[C@H](O)[C@H](O[C@H]6[C@H](O)[C@H](O)C(O)O[C@@H]6CO)O[C@@H]5CO)O[C@@H]4CO)O[C@@H]3CO)O[C@@H]2CO)[C@@H](O)[C@@H](O)[C@@H]1O` (some centres unmarked) [M6, mannohexaose]: the Kd in assay [2] is 240 ± 420 µM; in assay [1] (setting [3]), 580 ± 50 µM.
